Reference: ChEMBL document CHEMBL1139332, “Selective activity against Mycobacteriumtuberculosis of new quinoxaline 1,4-di-N-oxides” (Bioorg Med Chem, 2009)
In brackets after ≈: the same amount, converted by molar mass.

How the values were obtained:
[1] = Selectivity index, ratio of IC50 for african green monkey Vero cells to MIC for Mycobacterium tuberculosis H37Rv; format: functional
Vero = experiment: Cytotoxicity against african green monkey Vero cells after 72 hrs by MTT assay; format: cell-based, Chlorocebus sabaeus; conditions: Chlorocebus sabaeus, Vero, 72 h; read-out: IC50
[2] = test system: Mycobacterium tuberculosis; experiment: Antimicrobial activity against Mycobacterium tuberculosis H37Rv by microplate alamar blue assay; format: functional
[3] = test system: Mycobacterium tuberculosis; experiment: Antimicrobial activity against Mycobacterium tuberculosis H37Rv at 6.25 ug/ml by microplate alamar blue assay; format: functional

SMILES	Ratio [1]	IC50 (Vero) [µg/mL]	MIC [2] [µg/mL]	inhibition at 6.25 µg/mL [3] [%]
CCOC(=O)c1c(-c2ccc([N+](=O)[O-])cc2)[n+]([O-])c2ccccc2[n+]1[O-]	2.9	2.26 (≈ 6.36 µM)	0.78 (≈ 2.2 µM)	90
CCOC(=O)c1c(-c2ccc(C(F)(F)F)cc2)[n+]([O-])c2ccccc2[n+]1[O-]	1.44	2.24 (≈ 5.92 µM)	1.56 (≈ 4.12 µM)	90
N#Cc1c(-c2ccccc2)[n+]([O-])c2ccc(Cl)cc2[n+]1[O-]	0.92	0.36 (≈ 1.21 µM)	0.39 (≈ 1.31 µM)	90
Cc1ccc(-c2c(C#N)[n+]([O-])c3cc(C)c(C)cc3[n+]2[O-])cc1	>40	> 62.5	1.56 (≈ 5.11 µM)	90
Cc1cc2c(cc1C)[n+]([O-])c(-c1ccccc1)c(C#N)[n+]2[O-]	10	3.9 (≈ 13.4 µM)	0.39 (≈ 1.34 µM)	90
N#Cc1c(-c2ccccc2)[n+]([O-])c2ccc(C(F)(F)F)cc2[n+]1[O-]	>18.89	3.78 (≈ 11.4 µM)	< 0.2	90
N#Cc1c(-c2ccc(F)cc2)[n+]([O-])c2ccc(F)cc2[n+]1[O-]	>124.67	24.9 (≈ 83.3 µM)	< 0.2	90
N#Cc1c(-c2ccc(Cl)cc2)[n+]([O-])c2ccc(F)cc2[n+]1[O-]	>239.69	47.9 (≈ 152 µM)	< 0.2	90
N#Cc1c(-c2ccc(Cl)cc2)[n+]([O-])c2ccccc2[n+]1[O-]	0.92	0.36 (≈ 1.21 µM)	0.39 (≈ 1.31 µM)	90
CCOC(=O)c1c(-c2ccccc2)[n+]([O-])c2cc(F)c(F)cc2[n+]1[O-]	0.24	0.38 (≈ 1.1 µM)	1.56 (≈ 4.5 µM)	90
COc1ccc2c(c1)[n+]([O-])c(C#N)c(-c1ccc(C)cc1)[n+]2[O-]	2.4	3.8 (≈ 12.4 µM)	1.56 (≈ 5.08 µM)	90
CCOC(=O)c1c(-c2ccccc2)[n+]([O-])c2ccc(OC)cc2[n+]1[O-]	2.84	17.8 (≈ 52.2 µM)	6.25 (≈ 18.4 µM)	90
COC(=O)c1ccc(-c2c(C#N)[n+]([O-])c3cc(OC)ccc3[n+]2[O-])cc1	1.2	3.9 (≈ 11.1 µM)	3.13 (≈ 8.91 µM)	90
CCOC(=O)c1c(-c2ccc(OC)cc2)[n+]([O-])c2ccccc2[n+]1[O-]	4.9	7.65 (≈ 22.5 µM)	1.56 (≈ 4.58 µM)	90
N#Cc1c(-c2ccccc2)[n+]([O-])c2ccccc2[n+]1[O-]	9.5	1.9 (≈ 7.22 µM)	0.2 (≈ 0.76 µM)	90
COC(=O)c1ccc(-c2c(C#N)[n+]([O-])c3cc(F)ccc3[n+]2[O-])cc1	>258.67	57.5 (≈ 169 µM)	< 0.2	90
Cc1ccc(-c2c(C#N)[n+]([O-])c3cc(F)ccc3[n+]2[O-])cc1	>73.19	14.6 (≈ 49.6 µM)	< 0.2	90
